From ChEMBL document CHEMBL4706510, “Structure-based design, semi-synthesis and anti-inflammatory activity of tocotrienolic amides as 5-lipoxygenase inhibitors” (Eur J Med Chem, 2020) come the findings set out here.

Active and inactive are the calls of the source. The rule behind the calls is not given here.

The subject of the assay is PMNL. Description: Induction of 15-HETE formation in human PMNL cells by RP-HPLC analysis. The assay is classed as functional, cell-based.

For the molecule `COc1ccc(CNC(=O)/C(C)=C/CC/C(C)=C/CC/C(C)=C/CC[C@]2(C)CCc3c(C)c(O)c(C)c(C)c3O2)cc1`, the outcome was Active.
Next, `C/C(=C\CC/C(C)=C/CC[C@]1(C)CCc2c(C)c(O)cc(C)c2O1)CC/C=C(\C)C(=O)NCC1CCCCC1`: “Active”.
As to `C/C(=C\CC/C(C)=C/CC[C@]1(C)CCc2c(C)c(O)c(C)c(C)c2O1)CC/C=C(\C)C(=O)NCC1CCCCC1`, the outcome was Active.
In the case of `C/C(=C\CC/C(C)=C/CC[C@]1(C)CCc2c(C)c(O)c(C)c(C)c2O1)CC/C=C(\C)C(=O)NCc1cccnc1` it was “Active”.
